Melting point data for 88 molecules are collected here from a melting point compilation (Tetko et al.; mined from patent text by program, amines drawn as free bases though some values may be those of a salt).

A value given as a limit tells only on which side of the number the result lay.

On to `CC1(O)CC2c3ccccc3CCN2C2CCCCC21` (stereo not drawn), for which the melting point lay within 85 to 88 °C.

`COc1cc(OC)nc(NC(=O)NS(=O)(=O)c2c(OC)ccc3snnc23)n1` had a melting point of 120 to 129 °C.

`C[C@H](c1ccccc1)N1CCO[C@@H](c2ccc(C#N)cc2)C1` registered a melting point of 83.6 °C.

`CCCCS(=O)(=O)Nc1cc(C(=O)Nc2ccccc2)ccc1OC` displayed a melting point of 182 to 183 °C.

As for `CN(C)c1ccc(-c2nc3c(N[C@H]4[C@@H](C(N)=O)[C@@H]5C=C[C@H]4C5)ccnc3[nH]2)cc1`, the melting point is 245 to 251 °C.

`Cc1cc2n(c1C(=O)c1cccs1)CCC2C(=O)O` (stereo not drawn) had a melting point of 166 °C.

As for `COC(=O)C1=C(C)NC(=O)N(C)C1c1cccc([N+](=O)[O-])c1` (stereo not drawn), the melting point is 217 to 219 °C.

`COC(=O)c1cccc(Nc2nccc(-c3ccnc(NCCCO)c3)n2)c1`: the melting point was in the range of 162 to 163 °C.

`CCc1cccc(C)c1N1C(=O)C=CC1=O`: the melting point lay in the range of 84.5 to 85 °C.

With `Cc1nccc(N2CCN(C(=O)C3CCN(S(=O)(=O)c4ccc(Br)cc4)CC3)CC2)n1`, the melting point was in the range of 239 to 240 °C.

Take `CCc1cccc(CC(=O)O)c1OCCCc1cn(-c2ccc(Cl)cn2)nc1C(CC)CC`: the melting point is 114 to 115 °C.

`CC(C)(C)C(=O)NC1CCCNC(=O)C1` (stereo not drawn) showed a melting point of 106 to 107 °C.

Turning to `COC(=O)CCc1nc(CCc2ccc(C(=O)OC)cc2)ccc1OCCCC/C=C/c1ccc(OC)cc1`, the melting point is 59 to 61 °C.

`C#Cc1cccc(Nc2ncnc3cc(OCCOC(C)=O)c(OCCOC)cc23)c1` yielded a melting point of 134 to 135 °C.

With `O=C(Nc1ccc2cc(CN3CCCC3)cnc2c1F)c1ccc(-c2ccccc2)cc1F`, the melting point was in the range of 136 to 137 °C.

With `O=C(O)C=CC=CCSc1ccccc1`, the melting point was 108 to 110 °C.

As for `CCCCC(=O)Nc1cccc(C(=O)OC)c1`, the melting point lay in the range of 101 to 102 °C.

On to `O=CN(O)C(CS(=O)(=O)c1ccc(Oc2ccc(OC(F)(F)F)cc2)cc1)CS(=O)(=O)N1CCCC1` (stereo not drawn), for which the melting point lay within 120 to 123 °C.

For `Cc1ccn2ncc(C(=O)Nc3cc(Cl)ccc3OC3CCC(O)CC3)c2n1` (stereo not drawn), the melting point was in the range of 179 to 182 °C.

Take `CCCCNC(=O)NS(=O)(=O)c1c(C(=O)OCC)c(Cl)nn1C`: the melting point lay in the range of 109 to 111 °C.

On to `CCOC(=O)Cc1ccc2c(c1)CC(NC(=O)OC)CC2` (stereo not drawn), for which the melting point is 89 to 90 °C.

With `CC1Oc2cc(N)c([N+](=O)[O-])cc2O1` (stereo not drawn), the melting point is 139 °C.

For the molecule `COc1cc(Cl)ccc1C(=O)Nc1ccc(-n2nc(C(F)(F)F)cc2C(F)(F)F)cc1`, the melting point is 178 to 180 °C.

In the case of `O=C(OCC1CC1)c1ncn2c1[C@@H]1CCCN1C(=O)c1c(I)cccc1-2`, the melting point is 164 to 165 °C.

For the molecule `Cc1ccc(C23CC4CC(C2)CC(c2ccc(C)cc2)(C4)C3)cc1`, the melting point fell in the range of 145 to 146 °C.

Regarding `CC1(C)CCC(C)(C)c2cc(-c3ccc4cc(O)ccc4c3)ccc21`, the melting point stood at 104 °C.

Regarding `COc1ccc(CNS(=O)(=O)Cc2ccc3[nH]cc(CC#N)c3c2)cc1`, the melting point fell in the range of 144 to 145 °C.

`CSC(=S)N1CCN(Cc2ccccc2N)CC1` showed a melting point of 110 to 114 °C.

With `C=CC[C@H](C(N)=O)[C@@H](CC(C)C)C(=O)NC1N=C(c2ccccc2)c2cc(OC)ccc2N(C)C1=O` (stereo partly drawn), the melting point fell in the range of 244 to 255 °C.

`CS/C(NC(=O)c1ccc(SC)cc1)=C(\C#N)C(=O)Nc1ccc(C)cc1` yielded a melting point of 173 to 175 °C.

Regarding `COc1ccc(C(=O)Cn2c(-n3ccc(N)n3)nc3ccccc32)cc1`, the melting point lay in the range of 136 to 140 °C.

Consider `CC(=O)NCC1CCN(CC2COc3ccccc3O2)CC1` (stereo not drawn), for which the melting point was 138 °C.

For the molecule `COc1ccc(-c2nn(CC=Cc3ccccc3)c(=O)cc2-c2ccccc2)cc1`, the melting point lay within 136 to 137 °C.

Turning to `COC(=O)C(C)Oc1cccc2cccnc12` (stereo not drawn), the melting point fell in the range of 70 to 72 °C.

`O=S(=O)(O)c1ccc(NCc2ccc(Cl)cc2Cl)cc1` returned a melting point above 275 °C.

Molecule `Cc1ccccc1S(=O)(=O)NC1CCc2sccc2C1` (stereo not drawn) registered a melting point of 130 to 132 °C.

In turn, `COC(=O)Nc1nc2cc(C(=NO)c3ccc(F)cc3)ccc2[nH]1` came in with a melting point above 315 °C.

With `CCCCC[C@@H](CNC(=O)Nc1c(OCC)ncnc1N(C)C)c1cccc2c1OCO2`, the melting point was 62 to 64 °C.

In the case of `O=C1Cc2cc3c(cc2CCN1Cc1ccccc1)OCO3`, the melting point lay within 141 to 142 °C.

For `Cc1ccc(S(=O)(=O)OCC2CN(c3cc(F)c(N4CCN(C(=O)OC(C)(C)C)CC4)c(F)c3)C(=O)O2)cc1` (stereo not drawn), the melting point fell in the range of 150 to 152 °C.

In the case of `Nc1ccc(OCC2COCCO2)cc1` (stereo not drawn), the melting point fell in the range of 86 to 87 °C.

Turning to `CCOC(=O)CN1CCc2cc3c(cc2CC1)OCO3`, the melting point fell in the range of 89 to 90 °C.

In turn, `COC(=O)c1ccc2cc(S)ccc2c1` returned a melting point of 150 to 151 °C.

Turning to `CCC(C)(CC(=O)Nc1cccc(OCc2ccc3ccc(F)cc3n2)c1)C(=O)O` (stereo not drawn), the melting point fell in the range of 179 to 180 °C.

On to `O=C(O)c1cn(-c2cccc(I)c2)cn1`, for which the melting point was 229 to 230 °C.

For `CC(C)(C)c1ccc(/C=N/OCCOc2ccc(C(=O)O)c(OC(=O)c3ccc(C(C)(C)C)cc3)c2)cc1`, the melting point was in the range of 148 to 150 °C.

Molecule `COC(=O)[C@H](C)N(C(=O)[C@H](CC(C)C)NC(=O)OCc1ccccc1)c1ccc(-c2ccccc2)cc1` had a melting point of 126 to 127 °C.

As to `Nc1nc2ccc(Oc3ccc(F)cc3)cc2s1`, the melting point lay in the range of 126 to 128 °C.

Turning to `NC(=O)c1cccc(-n2c(=O)n(Cc3cccnc3)c(=O)c3cccnc32)c1`, the melting point was 219 to 220 °C.

`CS(=O)(=O)c1ccc(-c2cnn(-c3ccc(C(F)(F)F)cc3)c(=O)c2-c2ccc(F)cc2)cc1` displayed a melting point of 171 to 173 °C.

In the case of `COc1ccnc(CCc2nc3cc(-c4ccc(C#N)cc4)cnc3[nH]2)c1`, the melting point was 241 to 242 °C.

For the molecule `CS(=O)(=O)Oc1ccc2c(c1)C(=O)C(CC=O)C2` (racemic), the melting point lay in the range of 85 to 87 °C.

Take `O=C(NNC(=O)c1occ(-c2ccccc2)c1-c1ccccc1)c1ccc(O)c(I)c1`: the melting point is 171 to 174 °C.

Molecule `O=C(c1cc(=O)c2c(OCCOc3ccccc3)cccc2o1)N1CCN(CCO)CC1` returned a melting point of 191 °C.

For the molecule `Cc1ccc(-c2nc3ccc(N)cn3c2CNC(=O)CC(C)C)cc1`, the melting point lay in the range of 245 to 247 °C.

The molecule `COc1cc2c(cc1OC)N(C)C(=O)CNC2=O` displayed a melting point of 260 to 263 °C.

`COc1ccc2c(C(F)(F)F)cc(=O)[nH]c2c1NC(C)=O` displayed a melting point of 280 °C.

Molecule `CCN[C@H]1CCN(c2c(-c3ccccc3)c(C)c(C#N)c3nc(C4CC4)oc23)C1` had a melting point of 209 to 211 °C.

In the case of `CCCCN(C1c2cc(OCc3ccccc3)ccc2OC(C)(C)C1O)S(C)(=O)=O` (stereo not drawn), the melting point was 159 to 160 °C.

`COC(=O)c1c(OC)cc2oc(C)cc(=O)c2c1OC` registered a melting point of 188 °C.

Take `CC(=O)CCS(=O)(=O)c1ccc(C=C(C)c2ccc3c(c2)C(C)(C)CCC3(C)C)cc1`: the melting point was 135 to 136 °C.

As to `Oc1ccc(-c2nc3cc(O)ccc3o2)cc1`, the melting point was in the range of 264 to 267 °C.

Regarding `COc1ccc(-c2cc(-c3ccc(-c4c(Cc5ccccc5)oc5ccccc45)cc3)ccc2OC(Cc2ccccc2)C(=O)O)cc1` (stereo not drawn), the melting point lay in the range of 73 to 75 °C.

As to `COc1cc([N+](=O)[O-])ccc1S(=O)(=O)Nc1ccccc1C`, the melting point fell in the range of 127 to 129 °C.

With `COc1cccc2c1OCN(CCc1ccc(Cl)cc1)C2`, the melting point was in the range of 87 to 88 °C.

`CON1C=C2N=NC3=C(N(CC(C)C)CC(C)=C3)N2C1`: the melting point was in the range of 144 to 145 °C.

Take `COCCNc1ccc(C(=O)c2c(C)n(CCN3CCOCC3)c3ccccc23)cc1`: the melting point is 121 to 123 °C.

`COc1cc(C)cc(Sc2cccc(N)c2C#N)c1` displayed a melting point of 108 to 110 °C.

`COC(=O)CNc1cccc(C#N)c1` registered a melting point of 91.5 to 92.5 °C.

For the molecule `Cc1ccccc1C(O)c1cncnc1C(C)(C)C` (stereo not drawn), the melting point lay in the range of 125 to 127 °C.

`CN(C)c1ccccc1CNC(=O)C1Cc2ccccc2N1S(=O)(=O)c1ccc(-c2cccc(C(F)(F)F)c2)cc1` (stereo not drawn) came in with a melting point of 66 °C.

`O=C(O)C(Cc1ccccc1)CS(=O)C1CCCCC1` (stereo not drawn) displayed a melting point of 153 to 154 °C.

In turn, `COc1ccc(OC)c(NC(=O)c2cccc3cc(O)ccc23)c1` registered a melting point of 165 to 166 °C.

For `O=c1[nH]c2ccccc2cc1-c1csc(N(Cc2ccccc2)S(=O)(=O)c2ccccc2)n1`, the melting point fell in the range of 228 to 232 °C.

`CC(=O)Nc1ccc(S(=O)(=O)NCCCN2CCOCC2)cc1`: the melting point fell in the range of 97 to 98 °C.

Molecule `CS(=O)(=O)c1ccc(/C(=C(\CCO[N+](=O)[O-])C(=O)O)c2ccc(Cl)cc2)cc1` yielded a melting point of 143 to 144 °C.

Molecule `CCCc1nc2c(N)nc(C)c(C)c2n1CCCS(=O)(=O)c1ccc(C(=O)OCC)cc1` came in with a melting point of 169 to 171 °C.

With `COc1ccc(C(=O)NCc2ccc(Br)cc2F)c(OCC(=O)O)c1`, the melting point fell in the range of 203 to 204 °C.

As to `CC(=O)OCC(COC(C)=O)(NC(=O)OC(C)(C)C)C(=O)c1ccccc1`, the melting point was 112 to 113 °C.

`CCOC(=O)C1=C(N)N=C(OCC)C(C(=O)OCC)C1c1ccccc1` (stereo not drawn) gave a melting point of 119 °C.

`CC1CC(N2C(=O)c3ccccc3C2=O)C(=O)NC1=O` (stereo not drawn) gave a melting point of 270 to 272 °C.

Molecule `O=C(NCCCCCCCCNC(=O)c1ccc(OC(F)(F)F)cc1)c1ccc(OC(F)(F)F)cc1` gave a melting point of 164 to 165 °C.

For `CCCC(C)N1CCC2(CC1)CSC1=C(O2)c2ccccc2C(=O)C1=O` (stereo not drawn), the melting point is 109 to 111 °C.

For `CN(CCN1CCOCC1)C(=O)c1ccc(COc2cccc3c2CN(C2CCC(=O)NC2=O)C3=O)cc1` (stereo not drawn), the melting point is 120 to 122 °C.

In the case of `CCCCc1nc2c(C#N)ncc(C)c2[nH]1`, the melting point was in the range of 197 to 198 °C.

Molecule `COc1cc(-c2csc3c2OCCO3)c(OC)c2c(OC)cc(-c3csc4c3OCCO4)c(OC)c12` returned a melting point of 300 to 303 °C.

Regarding `COc1cc2c(cc1OC)SCCC(C(=O)N1CCN(C(=O)c3cc(OC)c(OC)c(OC)c3)CC1)=C2`, the melting point turned out to be 113 °C.

On to `CC(C)(C)CC(C)(C)Nc1nc(Cl)nc(N2CC3CCC(CC3)C2)n1`, for which the melting point lay in the range of 159 to 162 °C.

In general, melting point refers to the temperature of the solid-liquid transition.
